Values quoted from earlier work, collected in patent publication US20160143911A1, “STABLE AND WATER SOLUBLE PHARMACEUTICAL COMPOSITIONS COMPRISING PEMETREXED” (SYNTHON B.V., priority 2013, published 2016).

Settings: free diacid form

- Solubility in water: only sparingly soluble in water
SMILES: Nc1nc2[nH]cc(CCc3ccc(C(=O)N[C@@H](CCC(=O)O)C(=O)O)cc3)c2c(=O)[nH]1 [pemetrexed diacid, N-[4-[2-(2-amino-4,7-dihydro-4-oxo-1H-pyrrolo [2,3-d]pyrimidin-5-yl)ethyl]benzoyl]-L-glutamic acid]
